Test results as given in patent US6787359B1, “Gene transfer methods” (Takara Shuzo Co., Ltd., priority 1998, dated 2004).

Columns and labels:
[1] = tested on: NIH/3T3 cells; test: Titer of virus supernatant of producer cells cultured with sodium butyrate; assay type: cell-based; settings: φCRIP/pLEIN producer cells cultured 24 hours with 5 mM sodium butyrate; without: 3.3×10^4 cfu/ml
Experimental: The titer of the virus supernatant was measured according to a standard method [J. Virol., 62:1120-1124 (1988)] in which the efficiency of transferring a neomycin phosphotransferase gene into NIH/3T3 cells (ATCC CRL-1658) is used as an index. The number of infectious particles contained in 1 ml of the supernatant (cfu/ml) was calculated. The amount of the virus supernatant to be added in the experiments hereinbelow was determined based on the calculated value, i.e., the titer of the supernatant.
(§1) Recombinant retrovirus-producer cells obtained by introducing a retrovirus vector plasmid pLEIN into φCRIP cells were cultured in DMEM containing 10% CS. When the cells grew to semi-confluence in a 10-cm plate, the medium was changed to 7 ml of RPMI 1640 containing 10% FCS or 7 ml of RPMI 1640 containing 5 mM sodium butyrate (Nacalai Tesque) and 10% FCS. After the cells were cultured for 24 hours, supernatants were filtered through 0.45 μm filters to obtain virus supernatants. The titer of the virus supernatant was determined as described in Example 2. The titer of the virus supernatant without sodium butyrate was 3.3×10^4 cfu/ml, whereas the titer of the virus supernatant containing 5 mM sodium butyrate was 2×10^6 cfu/ml.

[2] = tested on: HL-60 cells; assay type: cell-based, human; settings: no washing
Experimental: as §1
HL-60 cells were used as target cells. 0.5 ml of the above-mentioned virus supernatant was added to each well of a plate coated with CH-296 as described in Example 12. The plate was incubated at 37° C. for 3 hours for contacting and binding the virus particles with CH-296. After incubation, the plate was […]. 0.5 ml of RPMI 1640 medium supplemented with 10% FCS containing 5×10^4 HL-60 cells was added to the well. As a control, 5×10^4 HL-60 cells were suspended in 0.5 ml of the above-mentioned virus supernatant and then immediately added to the plate coated with CH-296. These plates were incubated at 37° C. overnight to allow the virus to infect cells. After the incubation, 1 ml of RPMI 1640 medium containing 10% FCS was added to the well. The plate was incubated for additional 48 hours. The cell number was then counted.

[3] = tested on: L1210 cells; test: Eco-EGFP gene transfer on plates with covalently immobilized CH-271 and (Mannose)9-(GlucNAc)2-Asn; assay type: cell-based, mouse; settings: wells with sugar chain and CH-271 immobilized
Experimental: A microplate to which CH-271 and (Mannose)9-(GlucNAc)2-Asn were immobilized through covalent bonds was prepared. […] 50 μl each of solutions containing 2% BSA or 80 μg/ml of CH-271 as well as (Mannose)9-(GlucNAc)2-Asn at a varying concentration was added to each well of the activated 96-well Carboplate. The plate was subjected to immobilization reaction at 37° C. for 2 hours. The plate was blocked using 0.2% glycine solution at 4° C. for 15 hours and then used for the following gene transfer experiments.
10^3 L1210 cells and 0.1 ml Eco-EGFP virus supernatant (10^6 cfu/ml) were added to the well of the microplate. After the plate was incubated for 48 hours, 0.1 ml of fresh RPMI 1640 medium containing FCS, penicillin and streptomycin was added to the well. The plate was incubated for additional 24 hours. The cells were collected and washed. The gene transfer efficiency was calculated as described in Example 4.

[4] = tested on: mouse leukemia L1210 cells; test: Gene transfer with PM5neo virus on coated plates, G418-resistant cells by WST-1 absorbance; assay type: cell-based; settings: for Absorbance difference (450 nm-650 nm), G418-resistant cells: Experiment 2
Experimental: 50 μl of […] solution of H-271, H-296, C-274, CH-271, CH-296, ColV, human basic fibroblast growth factor (bFGF; Progen), tenascin (Gibco) or epidermal growth factor (EGF; Takara Shuzo), or 50 μl of 2% bovine serum albumin (BSA, Sigma) was added to each well of a 96-well non-treated microplate for cell culture (Falcon). The plate was allowed to stand at 4° C. overnight and then washed twice with phosphate buffered saline (PBS; Roman Kogyo). Alternatively, after the plate was treated as described above, 0.1 ml of 4 mg/ml solution of 1-ethyl-3-dimethylaminopropylcarbodiimide hydrochloride (Sigma) in sterile pure water was dispensed to each well. The reaction was allowed to proceed at 37° C. for 2 hours. The plate was washed extensively with pure water to prepare a carbodiimide-treated plate. These plates were stored at 4° C. until viral infection experiments were conducted.
10^4 mouse leukemia L1210 cells (ATCC CCL-219), which had been grown in RPMI 1640 medium (Bio Whittaker) supplemented with 10% FCS, 50 units/ml penicillin and 50 μg/ml streptomycin, and 50 μl of PM5neo virus supernatant (10^4 cfu/ml) were added to the well of the microplate. After the plate was incubated for 24 hours, the medium was changed to the same medium containing G418 (Gibco) at a final concentration of 0.75 mg/ml, and the plate was then incubated for additional 48 hours. G418-resistance cells were assessed according to the method as described in S. Kim et al. [Gene Therapy, 3:1018-1020 (1996)] with a partial modification in which color developed using Premix WST-1 reagent (Takara Shuzo) was measured as absorbance at 450 nm. […] Absorbance at 450 nm and 650 nm was then measured using a microplate reader, and the difference (450 nm-650 nm) was calculated. The value obtained using a plate coated with 2% BSA without carbodiimide treatment was defined as background.

[5] = tested on: L1210 cells; test: Eco-EGFP gene transfer with laminin and virus-binding substance, flow cytometry; assay type: cell-based, mouse; settings: no CH-296/CH-271
Experimental: Mouse laminin (Gibco) or human laminin (Takara Shuzo) was used in combination with a functional substance having an activity of binding to a virus to carry out gene transfer experiment. A 24-well non-treated microplate for cell culture (Falcon) used in the experiment was coated with these functional substances according to the following two methods.
The cocktail method: A mixture of two functional substances is added to the plate. The plate is allowed to stand at 4° C. overnight. The plate is blocked with 2% BSA at 37° C. for 20 minutes and then washed with PBS.
The pre-coating method: A solution of a functional substance having an activity of binding to a virus is added to the plate. The plate is allowed to stand at 4° C. overnight. The solution is removed. A laminin solution is added to the plate. The plate is incubated at 37° C. for 2 hours, blocked with 2% BSA, and then washed with PBS.
0.5 ml of the solution of the functional substance was used to coat each well. 10^5 L1210 cells and 0.5 ml of Eco-EGFP virus supernatant (10^5 cfu/ml) were added to the well. The plate was incubated for 24 hours. After incubation, the cells were collected by using a cell detachment buffer (Bio Whittaker) and washed. EGFP-expressing cells were analyzed by flow cytometry using FACSVantage (Becton Dickinson) at an excitation wavelength of 488 nm and an emission wavelength of 515-545 nm. The gene transfer efficiency (the ratio of EGFP-expressing cells to total cells) was calculated.

[6] = tested on: mouse leukemia L1210 cells; test: Effect of sugar chain-cleaving enzymes on CH-271/laminin plates, PM5neo gene transfer, G418-resistant cells; assay type: cell-based
Experimental: A 96-well microplate was coated using 50 μl/well of a mixture containing 5 μg/ml of mouse laminin and 80 μg/ml of CH-271 as described in Example 5. Effects of treatment of the plate with various enzymes having activities of cleaving sugar chains on gene transfer efficiency were examined.
Plates were treated with enzymes as follows: Enzyme solutions containing 500 mU/ml O-glycanase (endo-α-N-acetylgalactosaminidase, Seikagaku Corp.), 500 mU/ml endoglycosidase H (endo-β-N-acetylglucosaminidase H, Seikagaku Corp.), 250 mU/ml endo-β-galactosidase (Seikagaku Corp.) and 2 mU/ml α-mannosidase (Seikagaku Corp.) in 50 mM citrate-phosphate buffer (pH 5.0) were prepared. An enzyme solution containing 250 mU/ml glycopeptidase F (peptide: N-glycosidase F, Takara Shuzo) in 100 mM tris-hydrochloride buffer (pH 8.6) was prepared. 50 μl each of the enzyme solutions was dispensed in each well for reacting at 37° C. for 20 hours. The plate was then washed three times with PBS and then used for viral infection experiments. 10^4 mouse leukemia L1210 cells grown in RPMI 1640 medium supplemented with 10% FCS, 50 units/ml penicillin and […], and 50 μl of PM5neo virus supernatant (10^4 cfu/ml) were added to each well of the microplate. The plate was incubated for 24 hours. […] G418-resistance cells were assessed as described in Example 3.

[7] = Control: cells suspended in supernatant with sodium butyrate, added to CH-296 plate
[8] = plate treated with carbodiimide

CCCC(=O)[O-].[Na+] [sodium butyrate]
Titer of the virus supernatant [1]: 2×10^6 cfu/ml
Cell number (cells/plate) [2, 7]: 4.0 x 10^5 cells/plate
Gene transfer efficiency (%) [2, 7]: 35.46%
Viable cell number relative to supernatant without sodium butyrate ([2]; control group): one fourth

(Mannose)9-(GlucNAc)2-Asn
Gene transfer efficiency (in words) [3]: increased depending on the concentration of sugar chain used

Tenascin: tenascin (Gibco)
Absorbance difference (450 nm-650 nm), G418-resistant cells [4, 8]: 0.323 ± 0.037
Absorbance difference (450 nm-650 nm), G418-resistant cells ([4]; plate untreated): 0.060 ± 0.021
Appearance of G418-resistant cells (in words) ([4]; carbodiimide treatment carried out): increased

bFGF: human basic fibroblast growth factor (Progen)
Absorbance difference (450 nm-650 nm), G418-resistant cells [4, 8]: 0.580 ± 0.046
Absorbance difference (450 nm-650 nm), G418-resistant cells ([4]; plate untreated): 0.425 ± 0.014
Gene transfer efficiency (in words) ([4]; known virus-binding substances, Table 1): increase in gene transfer efficiency was observed

laminin
Gene transfer efficiency ([5]; laminin 5 μg/ml alone): 4.09%
Gene transfer efficiency ([5]; laminin 10 μg/ml alone): 6.76%
Gene transfer efficiency ([5]; laminin 20 μg/ml alone): 6.89%
Gene transfer-promoting effect of laminin after enzyme treatment (in words) ([6]; treatment of the plate with endoglycosidase H): completely abolished
Gene transfer efficiency after enzyme treatment (in words) ([6]; treatment of the plate with α-mannosidase or glycopeptidase F): decreased the gene transfer efficiency in some degree
